Reference: PubChem BioAssay (NCI)
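A five-concentration, 48-hour dose response in 96-well plates underlies each endpoint, interpolated linearly between surrounding concentrations. At the GI50, growth is halved. TGI is the concentration that stops growth completely.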

Legend:
Experiment in all cases: NCI-60 cell line screen, 48 h
NCI-H226 lung = system: NCI-H226 lung
NCI-H23 lung = system: NCI-H23 lung
NCI-H460 lung = system: NCI-H460 lung
NCI-H522 lung = system: NCI-H522 lung
NCI/ADR-RES ovarian = system: NCI/ADR-RES ovarian
OVCAR-3 ovarian = system: OVCAR-3 ovarian
OVCAR-4 ovarian = system: OVCAR-4 ovarian
OVCAR-5 ovarian = system: OVCAR-5 ovarian
OVCAR-8 ovarian = system: OVCAR-8 ovarian
PC-3 prostate = system: PC-3 prostate
RPMI-8226 leukemia = system: RPMI-8226 leukemia
RXF 393 renal = system: RXF 393 renal
SF-268 CNS = system: SF-268 CNS
SF-295 CNS = system: SF-295 CNS
SF-539 CNS = system: SF-539 CNS
SK-MEL-2 melanoma = system: SK-MEL-2 melanoma
SK-MEL-28 melanoma = system: SK-MEL-28 melanoma
SK-MEL-5 melanoma = system: SK-MEL-5 melanoma
SK-OV-3 ovarian = system: SK-OV-3 ovarian
SN12C renal = system: SN12C renal
SNB-19 CNS = system: SNB-19 CNS
SNB-75 CNS = system: SNB-75 CNS
SR leukemia = system: SR leukemia
T-47D breast = system: T-47D breast
TK-10 renal = system: TK-10 renal
U251 CNS = system: U251 CNS
UACC-257 melanoma = system: UACC-257 melanoma
UACC-62 melanoma = system: UACC-62 melanoma
UO-31 renal = system: UO-31 renal

## CC(C)(C)c1nn(-c2ccccc2)c2c1C(=O)CSC(c1ccccc1Cl)N2 (configuration not stated)
NCI-H226 lung
  TGI: 5.97 µM
NCI-H23 lung
  GI50: 2.39 µM
  TGI: 17.9 µM
NCI-H460 lung
  GI50: 2.8 µM
  TGI: 12.4 µM
NCI-H522 lung
  GI50: 0.65 µM
  TGI: 7.34 µM
NCI/ADR-RES ovarian
  GI50: 0.632 µM
  TGI: 7.54 µM
OVCAR-3 ovarian
  GI50: 1.37 µM
  TGI: 6.37 µM
OVCAR-4 ovarian
  GI50: 8.48 µM
  TGI: 21.9 µM
OVCAR-5 ovarian
  GI50: 3.18 µM
  TGI: 13.1 µM
OVCAR-8 ovarian
  GI50: 6.65 µM
  TGI: 30.2 µM
PC-3 prostate
  GI50: 1.62 µM
  TGI: 16.5 µM
RPMI-8226 leukemia
  GI50: 3.02 µM
  TGI: 19.3 µM
RXF 393 renal
  GI50: 0.545 µM
  TGI: 3.11 µM
SF-268 CNS
  GI50: 2.76 µM
  TGI: 18.5 µM
SF-295 CNS
  GI50: 0.746 µM
  TGI: 10.5 µM
SF-539 CNS
  GI50: 2.36 µM
  TGI: 10.1 µM
SK-MEL-2 melanoma
  GI50: 2.1 µM
  TGI: 13.4 µM
SK-MEL-28 melanoma
  GI50: 5.18 µM
  TGI: 22.5 µM
SK-MEL-5 melanoma
  GI50: 0.966 µM
  TGI: 11 µM
SK-OV-3 ovarian
  GI50: 1.78 µM
  TGI: 6.17 µM
SN12C renal
  GI50: 3.26 µM
  TGI: 14.7 µM
SNB-19 CNS
  GI50: 2.54 µM
  TGI: 15.2 µM
SNB-75 CNS
  GI50: 2.2 µM
  TGI: 13.9 µM
SR leukemia
  GI50: 0.413 µM
  TGI: 9.89 µM
T-47D breast
  GI50: 6.1 µM
  TGI: 30 µM
TK-10 renal
  GI50: 11.1 µM
  TGI: 29.4 µM
U251 CNS
  GI50: 2.41 µM
  TGI: 15.5 µM
UACC-257 melanoma
  GI50: 2.78 µM
  TGI: 14.7 µM
UACC-62 melanoma
  GI50: 0.775 µM
  TGI: 15 µM
UO-31 renal
  GI50: 3.03 µM
  TGI: 19.1 µM
